Assay results published in US20140303152A1, “BENZOTHIAZINETHIONE DERIVATIVES AND PREPARATION METHODS AND USES THEREOF” (SICHUAN UNIVERSITY, priority 2011, published 2014).
Converted amounts (≈) assume the structure as drawn. “And” between values parts separate entries of the source, which are not always exact repeats. Identical values can stand only once. Like-named read-outs stand apart in the source and are kept apart here.

Legend:
[1] = system: Mycobacterium tuberculosis (H37Ra); assay: In vitro inhibition test on Mycobacterium tuberculosis (H37Ra); type: cell-based
[2] = system: mycobacterium tuberculosis H37Rv; assay: In vitro inhibition test on Mycobacterium tuberculosis (H37Rv); type: cell-based; settings: for MIC90 / MIC99: Mycobacterium tuberculosis; for MIC99: 264 h; for inhibitory effects on mycobacterium tuberculosis (H37Rv): result in words
[3] = system: 293 cells; assay: Cytotoxicity test (MTT method); type: cell-based; settings: Homo sapiens
[4] = system: Bacillus Calmette Guerin (BCG); type: in vivo, BABL/C mice; settings: for Colony count results after treatment for 28 days (spleens and lungs): BCG-infected mice, FIG. 1; for Lung pathological examination, anti-BCG infection treatment effects: HE staining, FIG. 2
[5] = Acute toxicity test of compound If, blood biochemical detection; type: in vivo; parameters: Blood urea nitrogen / Total cholesterol / Creatine kinase / Creatinine / Blood glucose / Triglyceride / Total bilirubin / Alanine aminotransferase / Aspartate aminotransferase: unit not given here
Procedure: • 1. Experimental method, 1) If, intraperitoneal suspension, at dose of 2.5 g/kg; 2) adjuvant: 1% sodium carboxymethylcellulose (CMC-Na), 1% tween-80; 3) 10 BABL/C male and female mice, 6-8 weeks old, and weight of 20±2 g. The 10 mice were randomly divided into 2 groups, 5 mice for each group, and a solvent control group is set. Single intraperitoneal injection of 2.5 g/kg was given to the (1) drug group and (2) solvent control group within 24 h; physical signs, behavioral activities, glandular secretion, breath, stool, genitals, death and other poisoning manifestations of the mice were constantly observed every 4 h after administration, and the mice were killed after observation for 24 h, 5) blood was taken from eyeballs, and then the mice were killed, 800 μl whole blood was taken, centrifuged at 1300 r/min for 15 min, and 200 μl supernatant serum was taken for blood biochemical detection, including the following evaluation indicators: aspartate aminotransferase (AST), alanine aminotransferase (ALT), creatine kinase (CK), alkaline phosphatase (ALP), blood urea nitrogen (BUN), total protein (TP), albumin (Alb), blood glucose (GLU), total bilirubin (T-BIL), creatinine (Crea), total cholesterol (Chol) and triglyceride (TG), with 12 items in total. • 2.

[6] = high dose group, 75 mg/kg i.p. once every day
[7] = low dose group, 25 mg/kg i.p. once every day
[8] = serum of individual mice 6-10, If 2.5 g/kg i.p., 24 h
[9] = H37Rv, generally observed 11 days after inoculation, read-out: MIC99
[10] = H37Rv, generally observed 5-7 days after inoculation, read-out: MIC90
[11] = HEK293, 293 cells, MTT, 48 h, read-out: IC50

SMILES | IC90 [1] [µM] | MIC90 ([2]; H37RV) [µg/mL] | MIC99 ([2]; H37RV) [µg/mL] | inhibitory effects on mycobacterium tuberculosis (H37Rv) [2] | IC50 ([3]; HEK293, 48 h) [µM] | MIC99 [2, 9] [µg/mL] | MIC90 [2, 10] [µg/mL] | IC50 [3, 11] [µM] | other results
O=[N+]([O-])c1cc([N+](=O)[O-])c2sc(N3CCOCC3)nc(=S)c2c1 [Ig, 2-morpholinyl-6,8-dinitro-4H-benzo[e][1,3]thiazine-4-thione] | 0.8 | 0.0625 (≈ 0.176 µM) | 0.125 (≈ 0.353 µM) | equivalent to or even better than those of isoniazide | > 500 | – | – | – | –
O=[N+]([O-])c1cc([N+](=O)[O-])c2sc(N3CCCCC3)nc(=S)c2c1 [Ie, 6,8-dinitro-2-(piperidine-1-alkyl)-4H-benzo[e][1,3]thiazine-4-thione] | – | 1 (≈ 2.84 µM) | 4 (≈ 11.4 µM) | – | > 500 | – | – | – | –
CCNc1nc(=S)c2cc([N+](=O)[O-])cc([N+](=O)[O-])c2s1 [Ic, 2-(ethylamino)-6,8-dinitro-4H-benzo[e][1,3]thiazine-4-thione] | – | 2 (≈ 6.4 µM) | 8 (≈ 25.6 µM) | – | > 500 | – | – | – | –
O=[N+]([O-])c1cc(C(F)(F)F)cc2c(=S)nc(N3CCC4(CC3)OCCO4)sc12 [Compound If, 8-nitro-2-(1,4-dio-8-aza[4.5]dec-8-yl)-6-(trifluoromethyl)-4H-benzo[e][1,3]thiazine-4-thione] | 0.1 | – | – | equivalent to or even better than those of isoniazide | – | 0.0312 (≈ 0.0721 µM) | 0.0312 (≈ 0.0721 µM) | > 500 | Colony count results after treatment for 28 days (spleens and lungs) [4, 6]: slightly inferior to those of isoniazide, but obviously superior to those of the model group; Lung pathological examination, anti-BCG infection treatment effects [4, 6]: equivalent to those of the isoniazide (positive) control group; Colony count results after treatment for 28 days (spleens and lungs) [4, 7]: inhibitory effects on BCG growth of mouse spleens and lungs; Lung pathological examination, anti-BCG infection treatment effects [4, 7]: obviously superior to those of the solvent group, but inferior to the isoniazide (positive) control group and the If high dose group; acute toxicity ([5]; 2.5 g/kg single intraperitoneal injection, mice, observation 24 h): no obvious acute toxicity; Alanine aminotransferase [5, 8]: 10 and 16 (2×) and 12 and 11; Albumin [5, 8]: 31.5 and 34.0 and 33.1 and 33.4 and 32.2; Alkaline phosphatase [5, 8]: 166 and 134 and 156 and 175 and 165; Aspartate aminotransferase [5, 8]: 145 and 148 and 149 and 156 and 169; Blood glucose [5, 8]: 6.3 and 4.3 and 4.9 and 4.5 and 5.1; Blood urea nitrogen [5, 8]: 6.7 and 5.5 and 6.3 and 8.9 and 7.9; Creatine kinase [5, 8]: 67 and 54 and 65 and 66 and 74; Creatinine [5, 8]: −12 (2×) and −6 and −15 and −4; Total bilirubin [5, 8]: −0.6 (2×) and −0.5 and −1.2 and −0.4; Total cholesterol [5, 8]: 3.35 and 3.21 and 3.34 and 3.53 and 3.14; Total protein [5, 8]: 70.1 and 65.6 and 66.7 and 73.8 and 65.7; Triglyceride [5, 8]: 2.10 and 1.80 and 2.53 and 2.17 and 2.24
NNC(=O)c1ccncc1 [Isoniazide, reference compound] | 0.8 | – | – | – | – | 0.0625 (≈ 0.456 µM) | 0.0625 (≈ 0.456 µM) | – | –
O=[N+]([O-])c1cc([N+](=O)[O-])c2sc(Nc3ccc(C(F)(F)F)cc3)nc(=S)c2c1 [Ib, 6,8-dinitro-2-(4-(trifluoromethyl)anilino)-4H-benzo[e][1,3]thiazine-4-thione] | – | 4 (≈ 9.34 µM) | 16 (≈ 37.4 µM) | – | > 500 | – | – | – | –
O=[N+]([O-])c1cc(C(F)(F)F)cc2c(=S)nc(N3CCOCC3)sc12 [Ih, 2-morpholinyl-8-nitro-6-(trifluoromethyl)-4H-benzo[e][1,3]thiazine-4-thione] | 0.8 | – | – | equivalent to or even better than those of isoniazide | – | 0.0312 (≈ 0.0828 µM) | 0.0312 (≈ 0.0828 µM) | > 500 | –
CNc1nc(=S)c2cc([N+](=O)[O-])cc([N+](=O)[O-])c2s1 [Id, 2-(methylamino)-6,8-dinitro-4H-benzo[e][1,3]thiazine-4-thione] | – | 2 (≈ 6.7 µM) | 4 (≈ 13.4 µM) | – | > 500 | – | – | – | –
Fc1cc2c(=S)nc(Nc3ccc(Br)cn3)sc2c(F)c1F [Ia, 2-(5-bromopyridine-2-amino)-6,7,8-trifluoro-4H-benzo[e][1,3]thiazine-4-thione] | – | – | – | – | – | 16 (≈ 39.6 µM) | 8 (≈ 19.8 µM) | > 500 | –
